Source: patent publication US20100022520A1, “MALONYL-COA ACETYLTRANSFERASE INHIBITORS AGAINST ANTIBIOTIC RESISTANT BACTERTIA” (University of Pittsburgh -- Of the Commonwealth System of …, priority 2008, published 2010)

Columns and labels:
p53 = assay: inhibition of p53
caspase = assay: inhibition of caspase
[1] = test system: 32D cl 3 mouse hematopoietic progenitor cells; assay: radioprotection, survival curves of irradiated 32D cl 3 cells; format: cell-based; conditions: for radioprotective effect on cells: 10 μM, compound added before or after radiation; for Do (Gy): compound at 10 μM, ionizing radiation survival curve
Method: To measure the level of radioprotection for compounds in Table 3, a DMSO solution is made for each compound and added to 32D cl 3 cells, a mouse hematopoietic progenitor cell line at a final concentration of 10 μM. The terms “radioprotection” and “radioprotective” refer to the protective effect on normal cells exerted by the captioned compounds when such cells are exposed to ionizing radiation.
FIGS. 2-4 show the survival curves for 32D cl 3 cells in the presence of different compounds of the invention. A strong radioprotective effect is seen in cultures that include the captioned compounds. FIGS. 2 and 3 show cell survival curves when the captioned compounds were added to cell cultures before exposure to radiation. The survival curves in FIG. 4, however, show the radioprotective effect of the inventive compounds when delivered to cell cultures after exposure to ionizing radiation. […] Moreover, the extent of radioprotection in a culture that is pretreated with an inventive compound is similar to that observed in a culture in which such compound is added after exposure to radiation.
The extent of radioprotection afforded by the captioned compounds is determined by measuring the fraction of viable cells in a culture containing the captioned radioprotective agent. The fraction of viable cells is determined by back-extrapolating the linear portion of the shoulder width in a survival curve to the Y-axis.

E. coli FabD = biological target: T1, E. coli FabD (Escherichia coli, UniProt P0AAI9); assay: in vitro FabD (MCAT) enzyme inhibition assay, HPLC of CoA peak; format: biochemical; conditions: protocol of Molnos et al.
T1 construct: made in house; host or cells: E. coli
T1 sequence (P0AAI9 whole entry): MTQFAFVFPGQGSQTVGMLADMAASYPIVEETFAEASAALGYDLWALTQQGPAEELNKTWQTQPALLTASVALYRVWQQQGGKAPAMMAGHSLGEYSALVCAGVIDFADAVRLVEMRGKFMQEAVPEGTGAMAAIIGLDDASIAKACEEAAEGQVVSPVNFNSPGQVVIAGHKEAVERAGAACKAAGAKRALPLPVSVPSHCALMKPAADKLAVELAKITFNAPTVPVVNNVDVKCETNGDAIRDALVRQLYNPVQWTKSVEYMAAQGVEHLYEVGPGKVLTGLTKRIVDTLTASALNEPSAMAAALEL
Method: Compounds synthesized using MCR, as described above, were tested for their ability to inhibit FabD using an in vitro inhibition assay. Briefly, FabD and holo-ACP was cloned, and expressed in E. coli according to the protocol of Molnos et al., Anal. Biochem. 2003, 319, 171. The proteins were purified using the ACTA protein purification system. The inhibition study was carried out according to the protocol of Miossec et al., American Society for Microbiology 104th General Meeting, New Orleans, 2004 (LA. Abstract: K-001), and was performed in a final volume of 100 μl in 96-well microtiter plates (IEA/RIA black, flat bottom, half area plates, Costar).
Purified E. coli FabD was diluted in the enzyme dilution buffer (100 mM phosphate buffer pH 7, DTT 1.5 mM, BSA 1 mg/ml [30 ml of Assay buffer+30 mg of BSA]) at ten times the final concentration (0.75 ng/ml). Malonyl-CoA (10 mM, Sigma) was diluted to ten times the final concentration (25 uM) with distilled H2O. Holo-ACP was prepared to 874 μM. […] The reaction mixture was analyzed by anion exchange, high performance liquid chromatography, using a PL-SAX8u 4.6 mm×150 mm column (Polymer Laboratories) and UV-detection (CoA and malonyl-CoA are detected at 254 nm). The percent inhibition of FabD was calculated by integrating the area of the CoA peak in the chromatogram. […]

| SMILES | inhibition of p53 (p53) | inhibition of caspase (caspase) | radioprotective effect on cells [1] | Do (Gy) [1] [Gy] | ability to inhibit FabD (E. coli FabD) |
| --- | --- | --- | --- | --- | --- |
| COC(=O)CNC(=O)C(NC1CCSC1=O)C1CC1 (racemic) [BEB 69] | p53 inhibitors | inhibit caspase |  |  |  |
| Cc1cn(CC(NC2CCSC2=O)C(=O)NC(C)(C)C)c(=O)[nH]c1=O (racemic) [SK7] |  | inhibit caspase | potent radioprotective effect | 1.1 ± 0.1 |  |
| O=C(NCc1ccccc1)[C@@H]1CSC(=O)[C@H](Cc2ccccc2)N1 (single isomer, unassigned) [BEB 75-1] |  |  | potent radioprotective effect | 0.9 ± 0.1 |  |
| Clc1ccc(-c2ncn(CC3CC3)c2-c2c[nH]c3ccccc23)cc1 [BEB 55] | inhibitors of p53 |  |  | 1.1 ± 0.1 |  |
| Clc1cccc(Cc2ncn(CC3CC3)c2-c2c[nH]c3ccccc23)c1 [BEB 59] | inhibitors of p53 |  |  | 1.1 ± 0.1 |  |
| CC(C)=CCC[C@H](C)CC(NC1CCSC1=O)C(=O)NC(c1ccccc1)c1ccccc1 (stereo partly drawn) [Compound 13a, (S)-4,8-Dimethyl-2-(2-oxo-tetrahydro-thiophen-3-ylamino)-non-7-enoic acid benzhydryl-amide] |  |  |  |  | potent inhibitors |
| Cc1cc(C)c(NC(=O)C(NC2CCSC2=O)C(C)C)c(C)c1 (stereo not shown) [Compound 15a, 3-Methyl-2-(2-oxo-tetrahydro-thiophen-3-ylamino)-N-(2,4,6-trimethyl-phenyl)-butyramide] |  |  |  |  | potent inhibitors |
